Measurements: ChEMBL document CHEMBL1139835, “Novel quinolizidinyl derivatives as antiarrhythmic agents” (J Med Chem, 2007)
The source made the active and inactive calls. No cut-off for these calls is given here.

Tests used:
[1] = Negative inotropic activity assessed as decrease in developed tension in isolated guinea pig left atrium; type: functional, tissue-based; conditions: Cavia porcellus, Cardiac atrium
[2] = Activity against alternating current-induced arrhythmia in guinea pig left atrium; type: functional, tissue-based; conditions: Cavia porcellus, Cardiac atrium
[3] = Negative chronotropic activity assessed as decrease in atrial rate in isolated guinea pig right atrium at 100 uM relative to control; type: functional, Cavia porcellus, Cardiac atrium; set-up: scale not given: the % may be the effect or the level left
Aorta [4] = experiment: Inhibition of calcium-induced contraction of potassium ion depolarized guinea pig aortic strips at 100 uM; type: functional; conditions: Cavia porcellus
[5] = Negative inotropic activity assessed as decrease in developed tension in isolated guinea pig left atrium at 1 uM relative to control; type: functional, Cavia porcellus, Cardiac atrium; set-up: scale not given: the % may be the effect or the level left
[6] = Activity against alternating current-induced arrhythmia in guinea pig left atrium at 5 uM; type: functional, Cavia porcellus, Cardiac atrium
Heart [7] = experiment: Heart rate in spontaneously beating Langendorff-perfused guinea pig heart at 0.1uM; type: functional, Cavia porcellus; set-up: unit: beats/min
[8] = Negative chronotropic activity assessed as decrease in atrial rate in isolated guinea pig right atrium at 10 uM relative to control; type: functional, Cavia porcellus, Cardiac atrium; set-up: scale not given: the % may be the effect or the level left
Heart [9] = experiment: Heart rate in spontaneously beating Langendorff-perfused guinea pig heart at 1 uM; type: functional, Cavia porcellus; set-up: unit not given here
Aorta [10] = experiment: Inhibition of calcium-induced contraction of potassium ion depolarized guinea pig aortic strips at 50 uM; type: functional; conditions: Cavia porcellus
Heart [11] = experiment: Atrioventricular conduction time in spontaneously beating Langendorff-perfused guinea pig heart at 0.1 uM; type: functional, Cavia porcellus
Heart [12] = experiment: Atrioventricular conduction time in spontaneously beating Langendorff-perfused guinea pig heart at 1 nM; type: functional, Cavia porcellus
Heart [13] = experiment: Heart rate in spontaneously beating Langendorff-perfused guinea pig heart at 10 nM; type: functional, Cavia porcellus; set-up: unit not given here
Heart [14] = experiment: Atrioventricular conduction time in spontaneously beating Langendorff-perfused guinea pig heart at 10 uM; type: functional, Cavia porcellus
[15] = Negative inotropic activity assessed as decrease in developed tension in isolated guinea pig left atrium at 50 nM relative to control; type: functional, Cavia porcellus, Cardiac atrium; set-up: scale not given: the % may be the effect or the level left
Heart [16] = experiment: Ventricular action potential duration in spontaneously beating Langendorff-perfused guinea pig heart at 10 nM; type: functional, Cavia porcellus
Heart [17] = experiment: Intraventricular conduction time in spontaneously beating Langendorff-perfused guinea pig heart at 10 nM; type: functional, Cavia porcellus
Heart [18] = experiment: Heart rate in spontaneously beating Langendorff-perfused guinea pig heart at 10 uM; type: functional, Cavia porcellus; set-up: unit not given here
Heart [19] = experiment: Ventricular action potential duration in spontaneously beating Langendorff-perfused guinea pig heart at 1 uM; type: functional, Cavia porcellus
Heart [20] = experiment: Ventricular action potential duration in spontaneously beating Langendorff-perfused guinea pig heart at 1 nM; type: functional, Cavia porcellus
Heart [21] = experiment: Atrioventricular conduction time in spontaneously beating Langendorff-perfused guinea pig heart at 1 uM; type: functional, Cavia porcellus
Heart [22] = experiment: Heart rate in spontaneously beating Langendorff-perfused guinea pig heart at 1 nM; type: functional, Cavia porcellus; set-up: unit not given here
Heart [23] = experiment: Intraventricular conduction time in spontaneously beating Langendorff-perfused guinea pig heart at 1 nM; type: functional, Cavia porcellus
Heart [24] = experiment: Intraventricular conduction time in spontaneously beating Langendorff-perfused guinea pig heart at 10 uM; type: functional, Cavia porcellus
Heart [25] = experiment: Atrioventricular conduction time in spontaneously beating Langendorff-perfused guinea pig heart at 10 nM; type: functional, Cavia porcellus
[26] = (§1) Activity against alternating current-induced arrhythmia in guinea pig left atrium at 10 uM; type: functional, Cavia porcellus, Cardiac atrium
Heart [27] = experiment: Ventricular action potential duration in spontaneously beating Langendorff-perfused guinea pig heart at 10 uM; type: functional, Cavia porcellus
Heart [28] = experiment: Intraventricular conduction time in spontaneously beating Langendorff-perfused guinea pig heart at 0.1 uM; type: functional, Cavia porcellus
Heart [29] = experiment: Intraventricular conduction time in spontaneously beating Langendorff-perfused guinea pig heart at 1 uM; type: functional, Cavia porcellus
Heart [30] = experiment: Ventricular action potential duration in spontaneously beating Langendorff-perfused guinea pig heart at 0.1 uM; type: functional, Cavia porcellus
[31] = Negative inotropic activity assessed as decrease in developed tension in isolated guinea pig left atrium at 50 uM relative to control; type: functional, Cavia porcellus, Cardiac atrium; set-up: scale not given: the % may be the effect or the level left
[32] = (§2) Activity against alternating current-induced arrhythmia in guinea pig left atrium at 100 uM; type: functional, Cavia porcellus, Cardiac atrium
[33] = Activity against alternating current-induced arrhythmia in guinea pig left atrium at 50 uM; type: functional, Cavia porcellus, Cardiac atrium
tissue or blood = conditions: Cavia porcellus, Cardiac atrium
[34] = Negative chronotropic activity assessed as decrease in atrial rate in isolated guinea pig right atrium at 50 uM relative to control; type: functional, Cavia porcellus, Cardiac atrium; set-up: scale not given: the % may be the effect or the level left
[35] = Negative inotropic activity assessed as decrease in developed tension in isolated guinea pig left atrium at 10 uM relative to control; type: functional, Cavia porcellus, Cardiac atrium; set-up: scale not given: the % may be the effect or the level left
[36] = Negative inotropic activity assessed as decrease in developed tension in isolated guinea pig left atrium at 100 uM relative to control; type: functional, Cavia porcellus, Cardiac atrium; set-up: scale not given: the % may be the effect or the level left
Cavia porcellus [37] = species on record: Cavia porcellus; experiment: as §1; type: functional; conditions: Cardiac atrium
[38] = Positive chronotropic activity in isolated guinea pig right atrium relative to control; type: functional, Cavia porcellus, Cardiac atrium
[39] = Positive chronotropic activity in isolated guinea pig right atrium at 1 uM relative to control; type: functional, Cavia porcellus, Cardiac atrium
[40] = Negative inotropic activity assessed as decrease in developed tension in isolated guinea pig left atrium at 0.1 uM relative to control; type: functional, Cavia porcellus, Cardiac atrium; set-up: scale not given: the % may be the effect or the level left
Cavia porcellus [41] = species on record: Cavia porcellus; experiment: as §2; type: functional; conditions: Cardiac atrium

For `Cc1cc(NS(C)(=O)=O)cc(C)c1OC[C@@H]1CCCN2CCCC[C@H]12`, the EC50 [1] was 31 nM, the EC50 [2] was 1250 nM and the Activity [3] was 12%. For the same molecule, the inhibition at 100 µM (Aorta [4]) was 30%, the Activity [5] was 83% and the Activity [6] was 60%.
For `Cc1cccc(C)c1OC[C@@H]1CCCN2CCCC[C@H]12`, the Activity (Heart [7]) was 210, the Activity [8] was 19% and the EC50 [2] was 460 nM. For the same molecule, the Activity (Heart [9]) was 206, the inhibition at 50 µM (Aorta [10]) was 26% and the Activity (Heart [11]) was 66 ms. It also gave an Activity (Heart [12]) of 60 ms, an Activity (Heart [13]) of 215 and an Activity (Heart [14]) of 70 ms. For the same molecule, the Activity [15] was 25%, the Activity (Heart [16]) was 160 ms and the Activity (Heart [17]) was 30 ms. It also gave an Activity (Heart [18]) of 203, an Activity (Heart [19]) of 200 ms and an Activity (Heart [20]) of 155 ms. The Activity (Heart [21]) was 68 ms, the Activity (Heart [22]) was 218 and the Activity (Heart [23]) was 30 ms. For the same molecule, the Activity (Heart [24]) was 31 ms, the Activity (Heart [25]) was 64 ms and the Activity [26] was 176%. For the same molecule, the Activity (Heart [27]) was 210 ms, the Activity (Heart [28]) was 28 ms and the Activity (Heart [29]) was 30 ms. The Activity (Heart [30]) was 170 ms.
Work on `CS(=O)(=O)Nc1ccc(C(=O)NC[C@@H]2CCCN3CCCC[C@H]23)cc1` yielded an EC50 [1] of 250 nM, an Activity [3] of 4% and an inhibition at 100 µM (Aorta [4]) of 1%. The Activity [31] was 92% and the Activity [32] was 34%.
Work on `C=C[C@H]1CN2CC[C@H]1C[C@@H]2[C@@H](O)c1ccnc2ccc(OC)cc12` [QUINIDINE] yielded an Activity [33] of 69%, an Activity (Heart [7]) of 140 and an EC50 [1] of 3380 nM. The EC50 [2] was 10300 nM, the Activity (Heart [9]) was 123 and the EC50 (tissue or blood) was 3990 nM. It also gave an Activity (Heart [11]) of 57 ms, an Activity (Heart [12]) of 53 ms and an Activity (Heart [14]) of 70 ms. The Activity [34] was 86%, the Activity (Heart [17]) was 27 ms and the inhibition at 100 µM (Aorta [4]) was 30%. It also gave an Activity (Heart [19]) of 200 ms, an Activity (Heart [21]) of 60 ms and an Activity (Heart [23]) of 25 ms. It also gave an Activity [31] of 71%, an Activity (Heart [24]) of 39 ms and an Activity (Heart [25]) of 54 ms. The Activity (Heart [28]) was 31 ms, the Activity (Heart [29]) was 35 ms and the Activity (Heart [30]) was 182 ms.
Work on `Cc1cc(N)cc(C)c1OC[C@H]1CCCN2CCCC[C@H]12` yielded an Activity [35] of 91%, an EC50 [1] of 630 nM and an inhibition at 50 µM (Aorta [10]) of 32%. For the same molecule, the Activity [3] was 44% and the Activity [26] was 38%.
Work on `Cc1cc(C(=O)c2ccccc2)cc(C)c1OC[C@@H]1CCCN2CCCC[C@H]12` yielded an Activity [33] of 64%, an EC50 [1] of 160 nM and an EC50 [2] of 6750 nM. For the same molecule, the Activity [34] was 41%, the inhibition at 100 µM (Aorta [4]) was 17% and the Activity [31] was 94%.
Work on `Cc1cc(NS(C)(=O)=O)cc(C)c1NC(=O)C[C@@H]1CCCN2CCCC[C@H]12` yielded an EC50 [1] of 310 nM, an Activity [36] of 86% and an inhibition at 100 µM (Aorta [4]) of 24%. The Activity (Cavia porcellus [37]) was “inactive” and the Activity [38] was 8%.
With `Cc1cccc(C)c1NC(=O)C[C@@H]1CCCN2CCCC[C@H]12` the Activity [33] was 78%, the EC50 [1] was 620 nM and the EC50 [2] was 5710 nM. The inhibition at 100 µM (Aorta [4]) was 5%, the Activity [39] was 8% and the Activity [31] was 95%.
`Cc1cccc(C)c1OC[C@H]1CCCN2CCCC[C@H]12` gave an Activity [8] of 13%, an EC50 [1] of 14 nM and an Activity [40] of 68%. The inhibition at 100 µM (Aorta [4]) was 21% and the Activity [26] was 35%.
Molecule `Cc1cc([N+](=O)[O-])cc(C)c1NC(=O)C[C@@H]1CCCN2CCCC[C@H]12` has an EC50 [1] of 3460 nM, an Activity [3] of 25% and an inhibition at 100 µM (Aorta [4]) of 4%. For the same molecule, the Activity [31] was 79% and the Activity (Cavia porcellus [41]) was “inactive”.
`Cc1cc([N+](=O)[O-])cc(C)c1OC[C@@H]1CCCN2CCCC[C@H]12` gave an Activity [33] of 27%, an EC50 [1] of 8390 nM and an EC50 (tissue or blood) of 23700 nM. It also gave an Activity [36] of 91%, an Activity [34] of 66% and an inhibition at 100 µM (Aorta [4]) of 16%.
